Structures can show the parent of a compound that is named as a salt.
What was measured:
[1] = test system: bacterial strains that express KPC β-lactamases; experiment: Standard BLI potentiation MIC / synergy MIC assays, strains expressing KPC β-lactamases; type: cell-based; settings: in combination with a β-lactam; comparator Avibactam
Procedure: The experimental protocol was performed according to Clinical and Laboratory Standards Institute (CLSI) guidelines with modifications as described below (CLSI guidelines can be derived from the CLSI document M07-A9 published in January 2012: “Methods for Dilution Antimicrobial Susceptibility Tests for Bacteria That Grow Aerobically; Approved Standard-Ninth Edition”).
To prepare for MIC testing, frozen glycerol stocks of clinical isolates (Klebsiella pneumoniae, Eschericia coli, Enterobacter spp, Citrobacter spp, or Pseudomonas aeruginosa) were used to streak for isolated colonies on rich, non-selective, tryptic soy agar containing 5% sheep's blood (TSAB). Frozen glycerol stocks of laboratory engineered, isogenic E. coli strains, which contain cloned β-lactamase expressing plasmids were used to streak for isolated colonies on rich, selective LB agar supplemented with 25 μg/mL tetracycline to maintain the plasmid. All strains were incubated at 37° C. for 18-24 hrs.
On the day of testing, primary cultures were started by scraping off 5-10 colonies from the TSAB plates containing clinical strains or the tetracycline supplemented LB plates containing engineered strains. The clinical strain material was suspended in ˜5 mL of cation adjusted Mueller Hinton Broth (CAMHB) in 14 mL culture tubes. The engineered strain material was suspended in CAMHB (supplemented with 25 μg/mL tetracycline) in 14 mL culture tubes. All strains were incubated at 37° C. with aeration (200 rpm) for ˜2 hrs until the optical density at 600 nm (OD600) was >0.1.
The two compound components of the assay were each diluted in CAMHB and added to the 96-well broth microdilution assay plates. 50 μL of the β-lactam was added to each well of the assay plate in 2-fold dilutions with final concentrations ranging from 128 to 0.13 μg/mL. 25 μL of the BLI compound was added to all wells in the broth microdilution plates at a final concentration of 4 μg/mL. Inoculum cultures were prepared by standardizing the primary cultures to OD600=0.1 and then adding 20 μL of the adjusted primary culture per 1 mL CAMHB for clinical strains or CAMHB (supplemented with tetracycline at 100 μg/mL) for engineered strains, so that the final inoculum density was ˜10^5 colony forming units per milliliter. Diluted inoculum cultures were used to inoculate 25 μl, per well in 96-well broth microdilution assay plates. The final volume of each well was 100 μL and contained a β-lactam at different concentrations, a BLlcompound at 4 μg/mL concentration, the bacterial culture at an OD600 of approximately 0.001 and when necessary tetracycline at 25 μg/mL.
Plates were incubated for 18-20 hours at 37° C. with aeration (200 rpm). Following incubation, growth was confirmed visually placing plates over a viewing apparatus (stand with a mirror underneath) and then OD600 was measured using a SpectraMax 340PC384 plate reader (Molecular Devices, Sunnyvale, Calif.). Growth was defined as turbidity that could be detected with the naked eye or achieving minimum OD600 of 0.1. MIC values were defined as the lowest concentration producing no visible turbidity.
The synergy MIC (sMIC) assay determines the concentration of the BLI required to potentiate the activity of a fixed concentration of a β-lactam antibiotic against β-lactamase producing bacterial strains. The experimental protocol was performed according to Clinical and Laboratory Standards Institute (CLSI) guidelines with modifications as described below (CLSI guidelines can be derived from the CLSI document M07-A9 published in January 2012: “Methods for Dilution Antimicrobial Susceptibility Tests for Bacteria That Grow Aerobically; Approved Standard-Ninth Edition”). […]

[2] = test system: bacterial strains that express the class D cephalosporinase OXA-15; experiment: Standard BLI potentiation MIC / synergy MIC assays, strains expressing OXA-15; type: cell-based, E. coli; settings: in combination with a β-lactam; comparator Avibactam (CCC)
How it was run: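 Broth microdilution in cation-adjusted Mueller Hinton broth per CLSI M07-A9, ~10^5 CFU/mL, 18-20 h at 37 °C with aeration; engineered E. coli carrying β-lactamase plasmids kept on 25 μg/mL tetracycline. β-lactam MIC measured in 2-fold dilutions (128-0.13 μg/mL) with BLI fixed at 4 μg/mL; sMIC titrates BLI against a fixed β-lactam concentration. MIC = lowest concentration without visible turbidity.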

| Compound | activity and/or spectrum of activity against bacterial strains that express KPC β-lactamases, compared with Avibactam [1] | activity against bacterial strains that express the class D cephalosporinase OXA-15, compared with Avibactam [2] |
| --- | --- | --- |
| N=C(N)NC[C@@H](O)c1nnc([C@@H]2CC[C@@H]3CN2C(=O)N3OS(=O)(=O)O)o1 [Compound 731, (2S,5R)-2-(5-((R)-2-guanidino-1-hydroxyethyl)-1,3,4-oxadiazol-2-yl)-7-oxo-1,6-diazabicyclo[3.2.1]octan-6-yl hydrogen sulfate] | more active than Avibactam for at least one, bacterial strain that expresses KPC β-lactamase and/or show a better spectrum of activity | more active than Avibactam |
| N=C(N)NC[C@H](O)c1nnc([C@@H]2CC[C@@H]3CN2C(=O)N3OS(=O)(=O)O)o1 [Compound 732, (2S,5R)-2-(5-((S)-2-guanidino-1-hydroxyethyl)-1,3,4-oxadiazol-2-yl)-7-oxo-1,6-diazabicyclo[3.2.1]octan-6-yl hydrogen sulfate] | more active than Avibactam for at least one, bacterial strain that expresses KPC β-lactamase and/or show a better spectrum of activity | more active than Avibactam |
| CNCCCc1nnc([C@@H]2CC[C@@H]3CN2C(=O)N3OS(=O)(=O)O)o1 [Compound 734, (2S,5R)-2-(5-β-(methylamino)propyl)-1,3,4-oxadiazol-2-yl)-7-oxo-1,6-diazabicyclo[3.2.1]octan-6-yl hydrogen sulfate] | more active than Avibactam for at least one, bacterial strain that expresses KPC β-lactamase and/or show a better spectrum of activity | more active than Avibactam |
| NCCCCc1nnc([C@@H]2CC[C@@H]3CN2C(=O)N3OS(=O)(=O)O)o1 [Compound 735, (2S,5R)-2-(5-(4-aminobutyl)-1,3,4-oxadiazol-2-yl)-7-oxo-1,6-diazabicyclo[3.2.1]octan-6-yl hydrogen sulfate] | more active than Avibactam for at least one, bacterial strain that expresses KPC β-lactamase and/or show a better spectrum of activity | more active than Avibactam |
| O=C1N2C[C@@H](CC[C@H]2c2nnc(CCNCCO)o2)N1OS(=O)(=O)O [Compound 736, (2S,5R)-2-(5-(2-((2-hydroxyethyl)amino)ethyl)-1,3,4-oxadiazol-2-yl)-7-oxo-1,6-diazabicyclo[3.2.1]octan-6-yl hydrogen sulfate] | more active than Avibactam for at least one, bacterial strain that expresses KPC β-lactamase and/or show a better spectrum of activity | more active than Avibactam |
| CC(C)(N)Cc1nnc([C@@H]2CC[C@@H]3CN2C(=O)N3OS(=O)(=O)O)o1 [Compound 737, (2S,5R)-2-(5-(2-amino-2-methylpropyl)-1,3,4-oxadiazol-2-yl)-7-oxo-1,6-diazabicyclo[3.2.1]octan-6-yl hydrogen sulfate] | more active than Avibactam for at least one, bacterial strain that expresses KPC β-lactamase and/or show a better spectrum of activity | more active than Avibactam |
| N=C(N)Nc1nnc([C@@H]2CC[C@@H]3CN2C(=O)N3OS(=O)(=O)O)o1 [Compound 738, (2S,5R)-2-(5-guanidino-1,3,4-oxadiazol-2-yl)-7-oxo-1,6-diazabicyclo[3.2.1]octan-6-yl hydrogen sulfate] | more active than Avibactam for at least one, bacterial strain that expresses KPC β-lactamase and/or show a better spectrum of activity | more active than Avibactam |
| N=C(N)NC1(Cc2nnc([C@@H]3CC[C@@H]4CN3C(=O)N4OS(=O)(=O)O)o2)CC1 [Compound 739, (2S,5R)-2-(5-((1-guanidinocyclopropyl)methyl)-1,3,4-oxadiazol-2-yl)-7-oxo-1,6-diazabicyclo[3.2.1]octan-6-yl hydrogen sulfate] | more active than Avibactam for at least one, bacterial strain that expresses KPC β-lactamase and/or show a better spectrum of activity | more active than Avibactam |
| O=C1N2C[C@@H](CC[C@H]2c2nnc([C@H]3[C@@H]4CNC[C@@H]43)o2)N1OS(=O)(=O)O [Compound 740, (2S,5R)-2-(5-(3-azabicyclo[3.1.0]hexan-6-yl)-1,3,4-oxadiazol-2-yl)-7-oxo-1,6-diazabicyclo[3.2.1]octan-6-yl hydrogen sulfate] | more active than Avibactam for at least one, bacterial strain that expresses KPC β-lactamase and/or show a better spectrum of activity | more active than Avibactam |
| N=C(N)N1CC(Cc2nnc([C@@H]3CC[C@@H]4CN3C(=O)N4OS(=O)(=O)O)o2)C1 [Compound 741, (2S,5R)-2-(5-((1-carbamimidoylazetidin-3-yl)methyl)-1,3,4-oxadiazol-2-yl)-7-oxo-1,6-diazabicyclo[3.2.1]octan-6-yl hydrogen sulfate] | more active than Avibactam for at least one, bacterial strain that expresses KPC β-lactamase and/or show a better spectrum of activity | more active than Avibactam |
| O=C1N2C[C@@H](CC[C@H]2c2nnc(CCC3CNC3)o2)N1OS(=O)(=O)O [Compound 742, (2S,5R)-2-(5-(2-(azetidin-3-ybethyl)-1,3,4-oxadiazol-2-yl)-7-oxo-1,6-diazabicyclo[3.2.1]octan-6-yl hydrogen sulfate] | more active than Avibactam for at least one, bacterial strain that expresses KPC β-lactamase and/or show a better spectrum of activity | more active than Avibactam |
| O=C1N2C[C@@H](CC[C@H]2c2nnc(CCCC3CNC3)o2)N1OS(=O)(=O)O [Compound 743, (2S,5R)-2-(5-(3-(azetidin-3-yl)propyl)-1,3,4-oxadiazol-2-yl)-7-oxo-1,6-diazabicyclo[3.2.1]octan-6-yl hydrogen sulfate] | more active than Avibactam for at least one, bacterial strain that expresses KPC β-lactamase and/or show a better spectrum of activity | more active than Avibactam |

— US8962843B2, “1,3,4-oxadiazole and 1,3,4-thiadiazole beta-lactamase inhibitors” (priority 2012, dated 2015)
